Structures are written as SMILES. Numbered stars: 1 amine (or outer) side, 2 acyl side, 3 side chain; on linkers, the order of the positions; unused ones are H or OH. Square brackets hold non-standard residues; d marks the D form. Peptide text beside a SMILES is read from it. * marks the point of attachment. dPhe(4-Cl) = N[C@H](Cc1ccc(Cl)cc1)C(=O)O; NH(2-(2-pyridyl)ethyl) = c1ccc(CCN*)nc1; d2Nal = N[C@H](Cc1ccc2ccccc2c1)C(=O)O; Lys(iPr) = CC(C)NCCCC[C@H](N)C(=O)O; NMeY = CN[C@@H](Cc1ccc(O)cc1)C(=O)O; Cyclohexylacetyl = O=C(CC1CCCCC1)*; Cyclopropanecarbonyl = O=C(C1CC1)*; Piperazinyl(4-Me) = CN1CCN(*)CC1; dCit = NC(=O)NCCC[C@@H](N)C(=O)O; d3Pal = N[C@H](Cc1cccnc1)C(=O)O; Suc = O=C(CCC(=O)[*:2])[*:1]; Nicotinoyl = O=C(c1cccnc1)*; Methoxyacetyl = COCC(=O)*; Morpholide = C1CN(*)CCO1; CO = O=C([*:1])[*:2]; Propionyl = CCC(=O)*; Butyryl = CCCC(=O)*; Bz = O=C(c1ccccc1)*; For = O=C*

The target of the assay is T1, LHRH (Rattus norvegicus, UniProt P30969).
T1 construct: evaluated in an in vitro test for LHRH antagonist potency (pA2); endogenous in cells; host or cells: pituitary cells (rat, from my own knowledge of the cited method)
T1 sequence (P30969 1-327): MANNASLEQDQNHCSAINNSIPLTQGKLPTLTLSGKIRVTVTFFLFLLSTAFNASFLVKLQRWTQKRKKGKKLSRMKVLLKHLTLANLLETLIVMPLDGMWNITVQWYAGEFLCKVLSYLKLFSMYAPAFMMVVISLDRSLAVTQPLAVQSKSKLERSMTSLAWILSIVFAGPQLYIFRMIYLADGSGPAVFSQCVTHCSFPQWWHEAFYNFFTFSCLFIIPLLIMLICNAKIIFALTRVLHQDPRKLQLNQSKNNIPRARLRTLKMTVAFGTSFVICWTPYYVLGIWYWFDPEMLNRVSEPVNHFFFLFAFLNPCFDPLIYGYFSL
Nature of the assay: in vitro test for LHRH antagonist potency (pA2). Type of assay: cell-based. The following applies: negative logarithm of the antagonist concentration required to shift the response curve produced by the agonist leuprolide to two-fold higher concentration. On the procedure: Representative compounds of the present invention were evaluated in an in vitro test for LHRH antagonist potency (pA2). The test employed the method detailed in F. Haviv, et al. J. Med. Chem., 32:2340-2344 (1989). The values of pA2 are the negative logarithms of the concentration of the particular antagonist test compound required to shift the response curve produced by the agonist leuprolide to two-fold higher concentration. (Leuprolide is the LHRH agonist having the structure 5-oxo-Pro^1 -His^2 -Trp^3 -Ser^4 -Tyr^5 -D-Leu^6 -Leu^7 -Arg^8 -Pro^9 -NHEt and is disclosed and claimed in U.S. Pat. No. 4,005,063.) Typically pA2 values of 9.5 or greater are indicative of good LHRH antagonist potency, with values of 10.0 or greater being preferred.

On to `CC(C)C[C@H](NC(=O)[C@@H](CCCCNC(=O)c1cccnc1)NC(=O)[C@H](Cc1ccc(O)cc1)N(C)C(=O)[C@H](CO)NC(=O)[C@@H](Cc1cccnc1)NC(=O)[C@@H](Cc1ccc(Cl)cc1)NC(=O)[C@@H](Cc1ccc2ccccc2c1)NC(=O)C1CC1)C(=O)N[C@@H](CCCCNC(C)C)C(=O)N1CCC[C@H]1C(=O)N[C@H](C)C(N)=O` [Example 2f, N-Cyclopropylcarbonyl-D2Nal-D4ClPhe- D3Pal-Ser-NMeTyr-DLys(N-epsilon-Nicotinyl)-Leu-Lys(N-epsilon-Isopropyl)-Pro-DAlaNH 2] (Cyclopropanecarbonyl-[d2Nal][dPhe(4-Cl)][d3Pal]S[NMeY][dK](Nicotinoyl)L[Lys(iPr)]P[dA]-NH2), for which the Kb was 0.00355 nM.
For `CC(C)C[C@H](NC(=O)[C@@H](CCCNC(N)=O)NC(=O)[C@H](Cc1ccc(O)cc1)N(C)C(=O)[C@H](CO)NC(=O)[C@@H](Cc1cccnc1)NC(=O)[C@@H](Cc1ccc(Cl)cc1)NC(=O)[C@@H](Cc1ccc2ccccc2c1)NC(=O)N1CCN(C)CC1)C(=O)N[C@@H](CCCNC(=N)N)C(=O)N1CCC[C@H]1C(=O)N[C@H](C)C(N)=O` [Example 8d, N-(N'-Methylpiperazinylcarbonyl)-D2Nal-D4ClPhe-D3Pal-Ser-NMeTyr-DCit-Leu-Arg-Pro-DAlaNH2] ({Piperazinyl(4-Me)-CO}-[d2Nal][dPhe(4-Cl)][d3Pal]S[NMeY][dCit]LRP[dA]-NH2) the value was 0.0398 nM; for `COCC(=O)N[C@H](Cc1ccc2ccccc2c1)C(=O)N[C@H](Cc1ccc(Cl)cc1)C(=O)N[C@H](Cc1cccnc1)C(=O)N[C@@H](CO)C(=O)N(C)[C@@H](Cc1ccc(O)cc1)C(=O)N[C@H](CCCCNC(=O)c1cccnc1)C(=O)N[C@@H](CC(C)C)C(=O)N[C@@H](CCCCNC(C)C)C(=O)N1CCC[C@H]1C(=O)N[C@H](C)C(N)=O` [Example 2d, N-Methoxyacetyl-D2Nal-D4ClPhe-D3Pal-Ser-NMeTyr-DLys(N-epsilon-Nicotinyl)-Leu-Lys(N-epsilon-Isopropyl)-Pro-DAlaNH 2] (Methoxyacetyl-[d2Nal][dPhe(4-Cl)][d3Pal]S[NMeY][dK](Nicotinoyl)L[Lys(iPr)]P[dA]-NH2), 0.00724 nM; for `CC(C)C[C@H](NC(=O)[C@@H](CCCCNC(=O)c1cccnc1)NC(=O)[C@H](Cc1ccc(O)cc1)N(C)C(=O)[C@H](CO)NC(=O)[C@@H](Cc1cccnc1)NC(=O)[C@@H](Cc1ccc(Cl)cc1)NC(=O)[C@@H](Cc1ccc2ccccc2c1)NC(=O)c1ccccc1)C(=O)N[C@@H](CCCCNC(C)C)C(=O)N1CCC[C@H]1C(=O)N[C@H](C)C(N)=O` [Example 2j, N-Benzoyl-D2Nal-D4ClPhe-D3Pal-Ser-NMeTyr-DLys(N-epsilon-Nicotinyl)-Leu-Lys(N-epsilon-Isopropyl)-Pro-DAlaNH2] (Bz-[d2Nal][dPhe(4-Cl)][d3Pal]S[NMeY][dK](Nicotinoyl)L[Lys(iPr)]P[dA]-NH2), 0.0501 nM.
For `CC(C)C[C@H](NC(=O)[C@@H](CCCNC(N)=O)NC(=O)[C@H](Cc1ccc(O)cc1)N(C)C(=O)[C@H](CO)NC(=O)[C@@H](Cc1cccnc1)NC(=O)[C@@H](Cc1ccc(Cl)cc1)NC(=O)[C@@H](Cc1ccc2ccccc2c1)NC=O)C(=O)N[C@@H](CCCNC(=N)N)C(=O)N1CCC[C@H]1C(=O)N[C@H](C)C(N)=O` [Example 5a, N-Formyl-D2Nal-D4ClPhe-D3Pal-Ser-NMeTyr-DCit-Leu-Arg-Pro-DAlaNH2] (For-[d2Nal][dPhe(4-Cl)][d3Pal]S[NMeY][dCit]LRP[dA]-NH2), the Kb was 0.00447 nM.
Regarding `CC(C)C[C@H](NC(=O)[C@@H](CCCNC(N)=O)NC(=O)[C@H](Cc1ccc(O)cc1)N(C)C(=O)[C@H](CO)NC(=O)[C@@H](Cc1cccnc1)NC(=O)[C@@H](Cc1ccc(Cl)cc1)NC(=O)[C@@H](Cc1ccc2ccccc2c1)NC(=O)CCC(=O)O)C(=O)N[C@@H](CCCNC(=N)N)C(=O)N1CCC[C@H]1C(=O)N[C@H](C)C(N)=O` [Example 6, N-Succinyl-D2Nal-D4ClPhe-D3Pal-Ser-NMeTyr-DCit-Leu-Arg-Pro-DAlaNH2] (Suc-[d2Nal][dPhe(4-Cl)][d3Pal]S[NMeY][dCit]LRP[dA]-NH2), the Kb is 0.0398 nM.
For the compound `CCC(=O)N[C@H](Cc1ccc2ccccc2c1)C(=O)N[C@H](Cc1ccc(Cl)cc1)C(=O)N[C@H](Cc1cccnc1)C(=O)N[C@@H](CO)C(=O)N(C)[C@@H](Cc1ccc(O)cc1)C(=O)N[C@H](CCCCNC(=O)c1cccnc1)C(=O)N[C@@H](CC(C)C)C(=O)N[C@@H](CCCCNC(C)C)C(=O)N1CCC[C@H]1C(=O)N[C@H](C)C(N)=O` [Example 2a, N-Propionyl-D2Nal-D4ClPhe-D3Pal-Ser-NMeTyr-DLys(N-epsilon-Nicotinyl)-Leu-Lys(N-epsilon-Isopropyl)-Pro-DAlaNH 2] (Propionyl-[d2Nal][dPhe(4-Cl)][d3Pal]S[NMeY][dK](Nicotinoyl)L[Lys(iPr)]P[dA]-NH2), the antagonist equilibrium constant (Kb) is 0.00501 nM.
For `CC(C)C[C@H](NC(=O)[C@@H](CCCCNC(=O)c1cccnc1)NC(=O)[C@H](Cc1ccc(O)cc1)N(C)C(=O)[C@H](CO)NC(=O)[C@@H](Cc1cccnc1)NC(=O)[C@@H](Cc1ccc(Cl)cc1)NC(=O)[C@@H](Cc1ccc2ccccc2c1)NC(=O)CC1CCCCC1)C(=O)N[C@@H](CCCCNC(C)C)C(=O)N1CCC[C@H]1C(=O)N[C@H](C)C(N)=O` [Example 2i, N-Cyclohexylacetyl-D2Nal-D4ClPhe-D3Pal-Ser-NMeTyr-DLys(N-epsilon-Nicotinyl)-Leu-Lys(N-epsilon-Isopropyl)-Pro-DAlaNH 2] (Cyclohexylacetyl-[d2Nal][dPhe(4-Cl)][d3Pal]S[NMeY][dK](Nicotinoyl)L[Lys(iPr)]P[dA]-NH2) the value was 1.58 nM; for `CCCC(=O)N[C@H](Cc1ccc2ccccc2c1)C(=O)N[C@H](Cc1ccc(Cl)cc1)C(=O)N[C@H](Cc1cccnc1)C(=O)N[C@@H](CO)C(=O)N(C)[C@@H](Cc1ccc(O)cc1)C(=O)N[C@H](CCCCNC(=O)c1cccnc1)C(=O)N[C@@H](CC(C)C)C(=O)N[C@@H](CCCCNC(C)C)C(=O)N1CCC[C@H]1C(=O)N[C@H](C)C(N)=O` [Example 2b, N-Butyryl-D2Nal-D4ClPhe-D3Pal-Ser-NMeTyr-DLys(N-epsilon-Nicotinyl)-Leu-Lys(N-epsilon-Isopropyl)-Pro-DAlaNH 2] (Butyryl-[d2Nal][dPhe(4-Cl)][d3Pal]S[NMeY][dK](Nicotinoyl)L[Lys(iPr)]P[dA]-NH2), 0.00891 nM.
For `CC(C)C[C@H](NC(=O)[C@@H](CCCCNC(=O)c1cccnc1)NC(=O)[C@H](Cc1ccc(O)cc1)N(C)C(=O)[C@H](CO)NC(=O)[C@@H](Cc1cccnc1)NC(=O)[C@@H](Cc1ccc(Cl)cc1)NC(=O)[C@@H](Cc1ccc2ccccc2c1)NC=O)C(=O)N[C@@H](CCCCNC(C)C)C(=O)N1CCC[C@H]1C(=O)N[C@H](C)C(N)=O` [Example 1, N-Formyl-D2Nal-D4ClPhe-D3Pal-Ser-NMeTyr-DLys(Nicotinyl)-Leu-Lys(N-epsilon-lsopropyl)-Pro-DAlaNH2] (For-[d2Nal][dPhe(4-Cl)][d3Pal]S[NMeY][dK](Nicotinoyl)L[Lys(iPr)]P[dA]-NH2) the value was 0.00158 nM; for `CC(C)C[C@H](NC(=O)[C@@H](CCCNC(N)=O)NC(=O)[C@H](Cc1ccc(O)cc1)N(C)C(=O)[C@H](CO)NC(=O)[C@@H](Cc1cccnc1)NC(=O)[C@@H](Cc1ccc(Cl)cc1)NC(=O)[C@@H](Cc1ccc2ccccc2c1)NC(=O)N1CCOCC1)C(=O)N[C@@H](CCCNC(=N)N)C(=O)N1CCC[C@H]1C(=O)N[C@H](C)C(N)=O` [Example 8b, N-(Morpholinocarbonyl)-D2Nal-D4ClPhe-D 3Pal- Ser-NMeTyr-DCit-Leu-Arg-Pro-DAlaNH2] ({Morpholide-CO}-[d2Nal][dPhe(4-Cl)][d3Pal]S[NMeY][dCit]LRP[dA]-NH2), 0.02 nM; for `CC(C)C[C@H](NC(=O)[C@@H](CCCNC(N)=O)NC(=O)[C@H](Cc1ccc(O)cc1)N(C)C(=O)[C@H](CO)NC(=O)[C@@H](Cc1cccnc1)NC(=O)[C@@H](Cc1ccc(Cl)cc1)NC(=O)[C@@H](Cc1ccc2ccccc2c1)NC(=O)NCCc1ccccn1)C(=O)N[C@@H](CCCNC(=N)N)C(=O)N1CCC[C@H]1C(=O)N[C@H](C)C(N)=O` [Example 8g, N-(2-Pyridylethylaminocarbonyl)-D2Nal-D4ClPhe-D3Pal-Ser-NMeTyr-DCit-Leu-Arg-Pro-DAlaNH2] ({NH(2-(2-pyridyl)ethyl)-CO}-[d2Nal][dPhe(4-Cl)][d3Pal]S[NMeY][dCit]LRP[dA]-NH2), 0.0178 nM.
On to `CC(C)C[C@H](NC(=O)[C@@H](CCCNC(N)=O)NC(=O)[C@H](Cc1ccc(O)cc1)N(C)C(=O)[C@H](CO)NC(=O)[C@@H](Cc1cccnc1)NC(=O)[C@@H](Cc1ccc(Cl)cc1)NC(=O)[C@@H](Cc1ccc2ccccc2c1)NC(=O)C1CC1)C(=O)N[C@@H](CCCNC(=N)N)C(=O)N1CCC[C@H]1C(=O)N[C@H](C)C(N)=O` [Example 5e, N-Cyclopropylcarbonyl-D2Nal-D4ClPhe-D3PaI-Ser-NMeTyr-DCit-Leu-Arg-ProDAlaNH2] (Cyclopropanecarbonyl-[d2Nal][dPhe(4-Cl)][d3Pal]S[NMeY][dCit]LRP[dA]-NH2), for which the antagonist equilibrium constant (Kb) was 0.0112 nM.

These data come from US5413990A, “N-terminus modified analogs of LHRH” (Tap Pharmaceuticals Inc., priority 1993, dated 1995).
